Measurements from US6054435A, “6-O-substituted macrolides having antibacterial activity” (priority 1999, dated 2000).
In brackets after ≈: the same amount, converted by molar mass.

Columns and labels:
Experiment in all cases: in vitro antibacterial activity (MIC), agar dilution
Type in all cases: cell-based
[1] = system: Staphylococcus aureus ATCC 6538P; details: organism code AA; BHI agar, 35-37° C., 20 to 24 hours; unit assumed
Method: (§1) Representative compounds of the present invention were assayed in vitro for antibacterial activity as follows: Twelve petri dishes containing successive aqueous dilutions of the test compound mixed with 10 mL of sterilized Brain Heart Infusion (BHI) agar (Difco 0418-01-5) were prepared. Each plate was inoculated with 1:100 (or 1:10 for slow-growing strains, such as Micrococcus and Streptococcus) dilutions of up to 32 different microorganisms, using a Steers replicator block. […] In addition, a control plate, using BHI agar containing no test compound, was prepared and incubated at the beginning and end of each test.
(§2) An additional plate containing a compound having known susceptibility patterns for the organisms being tested and belonging to the same antibiotic class as the test compound was also prepared and incubated as a further control, as well as to provide test-to-test comparability.
(§3) After incubation, each plate was visually inspected. The minimum inhibitory concentration (MIC) was defined as the lowest concentration of drug yielding no growth, a slight haze, or sparsely isolated colonies on the inoculum spot as compared to the growth control.

[2] = system: Staphylococcus aureus A5177; details: organism code BB; BHI agar, 35-37° C., 20 to 24 hours; unit assumed
Method: as §1, §2, §3

[3] = system: Staphylococcus aureus A-5278; details: organism code CC; BHI agar, 35-37° C., 20 to 24 hours; unit assumed
Method: as §1, §2, §3

[4] = system: Staphylococcus aureus 1775; details: organism code GG; BHI agar, 35-37° C., 20 to 24 hours; unit assumed
Method: as §1, §2, §3

[5] = system: Escherichia coli SS; details: organism code RR; BHI agar, 35-37° C., 20 to 24 hours; unit assumed
Method: as §1, §2, §3

[6] = system: Staphylococcus epidermidis 3519; details: organism code HH; BHI agar, 35-37° C., 20 to 24 hours; unit assumed
Method: as §1, §2, §3

[7] = system: Mycobacterium smegmatis ATCC 114; details: organism code UU; BHI agar, 35-37° C., 20 to 24 hours; unit assumed
Method: as §1, §2, §3

[8] = system: Staphylococcus aureus NCTC10649M; details: organism code EE; BHI agar, 35-37° C., 20 to 24 hours; unit assumed
Method: as §1, §2, §3

[9] = system: Candida albicans CCH 442; details: organism code TT; BHI agar, 35-37° C., 20 to 24 hours; unit assumed
Method: as §1, §2, §3

[10] = system: Streptococcus pyogenes PIU 2548; details: organism code NN; BHI agar, 35-37° C., 20 to 24 hours; unit assumed
Method: as §1, §2, §3

[11] = system: Micrococcus luteus ATCC 4698; details: organism code PP; BHI agar, 35-37° C., 20 to 24 hours; unit assumed
Method: as §1, §2, §3

[12] = system: Haemophilis Influenzae DILL AMP R; details: organism code WW; BHI agar, 35-37° C., 20 to 24 hours; unit assumed
Method: as §1, §2, §3

[13] = system: Streptococcus pyogenes EES61; details: organism code LL; BHI agar, 35-37° C., 20 to 24 hours; unit assumed
Method: as §1, §2, §3

[14] = system: Nocardia Asteroides ATCC9970; details: organism code VV; BHI agar, 35-37° C., 20 to 24 hours; unit assumed
Method: as §1, §2, §3

[15] = system: Escherichia coli JUHL; details: organism code QQ; BHI agar, 35-37° C., 20 to 24 hours; unit assumed
Method: as §1, §2, §3

[16] = system: Streptococcus agalactiae CMX 508; details: organism code KK; BHI agar, 35-37° C., 20 to 24 hours; unit assumed
Method: as §1, §2, §3

[17] = system: Streptococcus Pneumonia GYR 1171; details: organism code YY; BHI agar, 35-37° C., 20 to 24 hours; unit assumed
Method: as §1, §2, §3

[18] = system: Streptococcus Pneumonia 5649; details: organism code ZZA; BHI agar, 35-37° C., 20 to 24 hours; unit assumed
Method: as §1, §2, §3

[19] = system: Streptococcus Pneumonia 5979; details: organism code ZZ; BHI agar, 35-37° C., 20 to 24 hours; unit assumed
Method: as §1, §2, §3

[20] = system: Streptococcus Pneumonia ATCC6303; details: organism code XX; BHI agar, 35-37° C., 20 to 24 hours; unit assumed
Method: as §1, §2, §3

[21] = system: Streptococcus pyogenes 930; details: organism code MM; BHI agar, 35-37° C., 20 to 24 hours; unit assumed
Method: as §1, §2, §3

[22] = system: Streptococcus bovis A-5169; details: organism code JJ; BHI agar, 35-37° C., 20 to 24 hours; unit assumed
Method: as §1, §2, §3

[23] = system: Staphylococcus aureus CMX 642A; details: organism code DD; BHI agar, 35-37° C., 20 to 24 hours; unit assumed
Method: as §1, §2, §3

[24] = system: Enterococcus faecium ATCC 8043; details: organism code II; BHI agar, 35-37° C., 20 to 24 hours; unit assumed
Method: as §1, §2, §3

Row | Compound | MIC [1] [µg/mL] | MIC [2] [µg/mL] | MIC [3] [µg/mL] | MIC [4] [µg/mL] | MIC [5] [µg/mL] | MIC [6] [µg/mL] | MIC [7] [µg/mL] | MIC [8] [µg/mL] | MIC [9] [µg/mL] | MIC [10] [µg/mL] | MIC [11] [µg/mL] | MIC [12] [µg/mL] | MIC [13] [µg/mL] | MIC [14] [µg/mL] | MIC [15] [µg/mL] | MIC [16] [µg/mL] | MIC [17] [µg/mL] | MIC [18] [µg/mL] | MIC [19] [µg/mL] | MIC [22] [µg/mL] | other results
1 | CC[C@H]1OC(=O)[C@H](C)C(=O)[C@H](C)[C@@H](O[C@@H]2O[C@H](C)C[C@H](N(C)C)[C@H]2O)[C@](C)(OCC#Cc2ccc(-c3ccccn3)s2)C[C@@H](C)C(=O)[C@H](C)[C@H]2N(N)C(=O)O[C@]12C [Example 36] | 0.05 (≈ 0.0617 µM) | 0.05 (≈ 0.0617 µM) | > 100 | > 100 | 0.2 (≈ 0.247 µM) | 0.1 (≈ 0.123 µM) | 1.56 (≈ 1.92 µM) | 0.1 (≈ 0.123 µM) | > 100 | 0.39 (≈ 0.481 µM) | 0.1 (≈ 0.123 µM) |  |  |  |  |  |  |  |  |  | 
2 | CC[C@H]1OC(=O)[C@H](C)C(=O)[C@H](C)[C@@H](O[C@@H]2O[C@H](C)C[C@H](N(C)C)[C@H]2O)[C@](C)(OCC#Cc2ccc(-c3ccccn3)s2)C[C@@H](C)C(=O)[C@H](C)[C@H]2NC(=O)O[C@@]21C [Example 1] | 0.05 (≈ 0.0628 µM) |  |  |  | 0.1 (≈ 0.126 µM) | 0.1 (≈ 0.126 µM) |  | 0.1 (≈ 0.126 µM) |  | 0.1 (≈ 0.126 µM) | 0.1 (≈ 0.126 µM) |  |  |  |  |  |  |  |  |  | 
3 | CC[C@H]1OC(=O)[C@H](C)C(=O)[C@H](C)[C@@H](O[C@@H]2O[C@H](C)C[C@H](N(C)C)[C@H]2O)[C@](C)(OC/C=C/c2ccc(-c3ccncn3)s2)C[C@@H](C)C(=O)[C@H](C)[C@H]2NC(=O)O[C@@]21C [Example 64] | 0.05 (≈ 0.0626 µM) | 0.05 (≈ 0.0626 µM) | > 100 | > 100 | 0.39 (≈ 0.488 µM) | 0.05 (≈ 0.0626 µM) | 0.78 (≈ 0.976 µM) | 0.05 (≈ 0.0626 µM) | > 100 | 0.1 (≈ 0.125 µM) | 0.2 (≈ 0.25 µM) | 2 (≈ 2.5 µM) | 0.01 (≈ 0.0125 µM) | 0.01 (≈ 0.0125 µM) | 50 (≈ 62.6 µM) | 0.02 (≈ 0.025 µM) | ≤ 0.004 | 0.25 (≈ 0.313 µM) | 2 (≈ 2.5 µM) | ≤ 0.005 | MIC [20]: ≤ 0.004 µg/mL; MIC [21]: 3.1 µg/mL (≈ 3.88 µM)
4 | CC[C@H]1OC(=O)[C@H](C)C(=O)[C@H](C)[C@@H](O[C@@H]2O[C@H](C)C[C@H](N(C)C)[C@H]2O)[C@](C)(OCC#Cc2ccc(-c3ccncc3)s2)C[C@@H](C)C(=O)[C@H](C)[C@H]2NC(=O)O[C@@]21C [Example 3] | 0.05 (≈ 0.0628 µM) | 0.05 (≈ 0.0628 µM) | > 100 |  | 0.2 (≈ 0.251 µM) | > 100 |  |  | > 100 | 0.1 (≈ 0.126 µM) | 0.05 (≈ 0.0628 µM) |  | ≤ 0.05 | 0.01 (≈ 0.0126 µM) | 100 (≈ 126 µM) | ≤ 0.05 |  |  |  | ≤ 0.05 | MIC [23]: 0.1 µg/mL (≈ 0.126 µM)
5 | CC[C@H]1OC(=O)[C@H](C)C(=O)[C@H](C)[C@@H](O[C@@H]2O[C@H](C)C[C@H](N(C)C)[C@H]2O)[C@](C)(OCC#Cc2ccc(-c3cncc(C(=O)N(C)C)c3)s2)C[C@@H](C)C(=O)[C@H](C)[C@H]2NC(=O)O[C@@]21C [Example 11] | 0.1 (≈ 0.115 µM) | 0.2 (≈ 0.231 µM) | > 100 | > 100 | 0.78 (≈ 0.9 µM) | 0.2 (≈ 0.231 µM) | > 12.5 | 0.2 (≈ 0.231 µM) | > 100 | 0.39 (≈ 0.45 µM) | 0.2 (≈ 0.231 µM) | 16 (≈ 18.5 µM) | 0.02 (≈ 0.0231 µM) | 0.2 (≈ 0.231 µM) | > 100 | 0.05 (≈ 0.0577 µM) | 0.03 (≈ 0.0346 µM) | 1 (≈ 1.15 µM) | 128 (≈ 148 µM) | 0.01 (≈ 0.0115 µM) | MIC [24]: 0.39 µg/mL (≈ 0.45 µM); MIC [20]: 0.03 µg/mL (≈ 0.0346 µM); MIC [21]: > 100 µg/mL
